In patent US10988459B2 (priority 2015, dated 2021) one finds Ki data, which are given here for 31 compounds.

Like-named read-outs stand apart in the source and are kept apart here. Bounds are passed on as bounds.

This experiment addresses human RIP1 kinase domain (2-375) (Homo sapiens (Human), UniProt Q13546). Put plainly: biochemical. The experiment is classed as biochemical. The note with it: 50 uM ATP. An outline of the steps:
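Ki^app comes from Morrison tight-binding fits of fractional activity versus compound concentration. Activity was read as ADP production, via tracer displacement lowering fluorescence polarization (633 nm laser). Conditions: 2 h, 50 nM insect-cell-expressed enzyme, 50 uM ATP, 30 mM MgCl2, 1 mM DTT, 0.5% DMSO, pH 7.5 Hepes.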

The mark [1] stands for this setting: Table 1, apparent Ki (Morrison tight-binding fit), 50 nM RIP1 kinase domain, 2 hours incubation, read-out: RIP1 Ki.
Setting [2] is: human RIP1 kinase domain (2-375), Transcreener ADP assay, 2 hours incubation, read-out: RIP1 Ki.
The mark [3] stands for this setting: human RIP1 kinase domain (2-375), 2 hours incubation, Transcreener ADP assay, read-out: RIP1 Ki.
Where [4] appears, read: tight-binding apparent inhibition constant, human RIP1 kinase domain (2-375) 50 nM, 2 hours, read-out: Ki.
The mark [5] stands for this setting: Table 5, apparent Ki (Morrison tight-binding fit), 50 nM RIP1 kinase domain, 2 hours incubation, read-out: Ki.

Chain of human RIP1 kinase domain (2-375) (Q13546 2-375): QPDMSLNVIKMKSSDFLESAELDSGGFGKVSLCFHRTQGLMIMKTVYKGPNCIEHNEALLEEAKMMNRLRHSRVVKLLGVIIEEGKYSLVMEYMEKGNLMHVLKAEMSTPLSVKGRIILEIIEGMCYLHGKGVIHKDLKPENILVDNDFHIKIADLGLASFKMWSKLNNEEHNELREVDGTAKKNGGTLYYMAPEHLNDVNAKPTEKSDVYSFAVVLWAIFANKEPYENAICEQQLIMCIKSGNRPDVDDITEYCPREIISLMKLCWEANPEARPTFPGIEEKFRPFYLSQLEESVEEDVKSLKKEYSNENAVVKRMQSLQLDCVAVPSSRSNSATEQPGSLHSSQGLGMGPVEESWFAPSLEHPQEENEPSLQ

On to `CC1CCc2onc(C(=O)N[C@H]3COc4ccccc4N(C)C3=O)c2C1` (stereo partly drawn) [Example 67, 5-methyl-N-((S)-5-methyl-4-oxo-2,3,4,5-tetrahydrobenzo[b][1,4]oxazepin-3-yl)-4,5,6,7-tetrahydrobenzo[d]isoxazole-3-carboxamide], for which, under setting [1], the Ki is 107 nM.

`CN1C(=O)[C@@H](NC(=O)c2n[nH]c3ncc(C4CC4)cc23)COc2ccccc21` [Example 239, (S)-5-cyclopropyl-N-(5-methyl-4-oxo-2,3,4,5-tetrahydrobenzo[b][1,4]oxazepin-3-yl)-1H-pyrazolo[3,4-b]pyridine-3-carboxamide]: the Ki under setting [2] came to 289 nM.

In the case of `CN1C(=O)[C@@H](NC(=O)c2n[nH]c3ccc(Cl)cc23)COc2ccccc21` [Example 78, (S)-5-chloro-N-(5-methyl-4-oxo-2,3,4,5-tetrahydrobenzo[b][1,4]oxazepin-3-yl)-1H-indazole-3-carboxamide], under setting [1], the Ki stood at 21 nM.

As to `CN1C(=O)[C@@H](NC(=O)c2cc3c(cn2)cnn3C2CCOC2)COc2ccccc21` (stereo partly drawn) [Example 128, N—((S)-5-methyl-4-oxo-2,3,4,5-tetrahydrobenzo[b][1,4]oxazepin-3-yl)-1-(tetrahydrofuran-3-yl)-1H-pyrazolo[4,3-c]pyridine-6-carboxamide], the Ki under setting [3] was 61.4 nM.

`CN1C(=O)[C@@H](NC(=O)c2nc3cccc(-c4c(F)cccc4F)n3n2)CCn2nccc21` [Example 394, (S)-5-(2,6-difluorophenyl)-N-(4-methyl-5-oxo-5,6,7,8-tetrahydro-4H-pyrazolo[1,5-a][1,3]diazepin-6-yl)-[1,2,4]triazolo[1,5-a]pyridine-2-carboxamide]: the Ki under setting [4] stood at 6.04 nM.

Regarding `Cc1cccc(Cn2cnc(C(=O)NC3CCn4nc(C5CC5)cc4N(C)C3=O)n2)n1` (stereo not shown) [Example 259, N-(2-cyclopropyl-4-methyl-5-oxo-5,6,7,8-tetrahydro-4H-pyrazolo[1,5-a][1,3]diazepin-6-yl)-1-((6-methylpyridin-2-yl)methyl)-1H-1,2,4-triazole-3-carboxamide], under setting [2], the Ki stood at 789 nM.

As to `O=C(N[C@H]1COc2[nH]ncc2NC1=O)c1ccn(Cc2ccc(F)c(F)c2)n1` [Example 16, (S)-1-(3,4-difluorobenzyl)-N-(5-oxo-4,5,6,7-tetrahydro-1H-pyrazolo[3,4-b][1,4]oxazepin-6-yl)-1H-pyrazole-3-carboxamide], the Ki under setting [1] is above 10000 nM.

`CN1C(=O)[C@@H](NC(=O)c2cc(Oc3ccccc3)ccn2)CCn2nccc21` [Example 101, (S)—N-(4-methyl-5-oxo-5,6,7,8-tetrahydro-4H-pyrazolo[1,5-a][1,3]diazepin-6-yl)-4-phenoxypicolinamide]: the Ki under setting [3] was 189 nM.

`CN1C(=O)[C@@H](NC(=O)c2ncn(Cc3ccccc3F)n2)CCn2nc(CCN3CC4CC3CO4)cc21` (stereo partly shown) [Example 762]: the Ki under setting [5] came out at 182 nM.

In the case of `Cc1nn2c(c1C)N(C)C(=O)[C@@H](NC(=O)c1ncn(Cc3ccc(F)cc3F)n1)CC2` [Example 280, (S)-1-(2,4-difluorobenzyl)-N-(2,3,4-trimethyl-5-oxo-5,6,7,8-tetrahydro-4H-pyrazolo[1,5-a][1,3]diazepin-6-yl)-1H-1,2,4-triazole-3-carboxamide], under setting [2], the Ki was found to be 50.9 nM.

Turning to `CCc1cccc2nc(C(=O)N[C@H]3COc4ccccc4N(C)C3=O)nn12` [Example 378, (S)-5-ethyl-N-(5-methyl-4-oxo-2,3,4,5-tetrahydrobenzo[b][1,4]oxazepin-3-yl)-[1,2,4]triazolo[1,5-a]pyridine-2-carboxamide], the Ki under setting [4] is 6.68 nM.

As for `O=C(N[C@H]1CCc2cc(F)cc(F)c2NC1=O)c1nc2n(n1)[C@@H](C(F)(F)F)CCC2` (single isomer, unassigned) [Example 429], the Ki under setting [4] came to 213 nM.

As to `CN1C(=O)[C@@H](NC(=O)c2ncn(Cc3cccc(Cl)c3)n2)CCn2nc(C3CC3)cc21` [Example 538], the Ki under setting [4] stood at 19 nM.

Regarding `Cc1ncc(-c2cc3n(n2)CCC(NC(=O)c2ncn(Cc4ccccc4)n2)C(=O)N3C)n1C` (racemic) [Example 775, 1-benzyl-N-(2-(1,2-dimethyl-1H-imidazol-5-yl)-4-methyl-5-oxo-5,6,7,8-tetrahydro-4H-pyrazolo[1,5-a][1,3]diazepin-6-yl)-1H-1,2,4-triazole-3-carboxamide], the Ki under setting [5] amounted to 182 nM.

With `CC[C@@]1(C)OCc2cnc(C(=O)N[C@H]3COc4ccccc4N(C)C3=O)nc21` (mixture of isomers) [Example 682, (7R)-7-ethyl-7-methyl-N-[rac-(3S)-5-methyl-4-oxo-2,3-dihydro-1,5-benzoxazepin-3-yl]-5H-furo[3,4-d]pyrimidine-2-carboxamide], the Ki under setting [4] amounted to 73.8 nM.

On to `CN1C(=O)C(NC(=O)c2nnc(Cc3ccccc3)[nH]2)CCCn2nccc21` (stereo not shown) [Example 93, 5-benzyl-N-(4-methyl-5-oxo-4,5,6,7,8,9-hexahydropyrazolo[1,5-a][1,3]diazocin-6-yl)-4H-1,2,4-triazole-3-carboxamide], for which the Ki under setting [3] was determined as 381 nM.

As for `CCC[C@]1(C)OCc2cnc(C(=O)N[C@H]3COc4ccccc4N(C)C3=O)nc21` (mixture of isomers) [Example 683, (7S)-7-methyl-7-propyl-N-[rac-(3S)-5-methyl-4-oxo-2,3-dihydro-1,5-benzoxazepin-3-yl]-5H-furo[3,4-d] pyrimidine-2-carboxamide], the Ki under setting [4] was 10.9 nM.

In the case of `Cc1cc2n(n1)CC[C@H](NC(=O)c1ncn(CC3(C)CC3)n1)C(=O)N2C` [Example 289, (S)—N-(2,4-dimethyl-5-oxo-5,6,7,8-tetrahydro-4H-pyrazolo[1,5-a][1,3]diazepin-6-yl)-1-((1-methylcyclopropyl)methyl)-1H-1,2,4-triazole-3-carboxamide], the Ki under setting [2] was 395 nM.

With `CCC[C@H]1CCCc2nc(C(=O)N[C@H]3CCc4cc(F)cc(F)c4NC3=O)nn21` (single isomer, unassigned) [Example 435], under setting [4], the Ki is 25.2 nM.

Regarding `O=C(N[C@H]1CCc2cc(F)cc(F)c2NC1=O)c1nc2n(n1)CCO[C@@H]2c1ccccc1` [Example 639, (8R)-8-phenyl-N-[(3S)-7,9-difluoro-2-oxo-1,3,4,5-tetrahydro-1-benzazepin-3-yl]-6,8-dihydro-5H-[1,2,4]triazolo[5,1-c][1,4]oxazine-2-carboxamide], the Ki under setting [4] amounted to 420 nM.

Take `Cc1cc2n(n1)CC[C@H](NC(=O)c1nc3n(n1)CCN3c1ccccc1)C(=O)N2C` [Example 636, 4-phenyl-N-[(6S)-2,4-dimethyl-5-oxo-7,8-dihydro-6H-pyrazolo[1,5-a][1,3]diazepin-6-yl]-5,6-dihydroimidazo[1,2-b][1,2,4]triazole-2-carboxamide]: the Ki under setting [4] is 130 nM.

As for `Cc1ccc(Cn2cnc(C(=O)NC3CCn4nc(C5CC5)cc4N(C)C3=O)n2)cn1` (stereo not shown) [Example 278, N-(2-cyclopropyl-4-methyl-5-oxo-5,6,7,8-tetrahydro-4H-pyrazolo[1,5-a][1,3]diazepin-6-yl)-1-((6-methylpyridin-3-yl)methyl)-1H-1,2,4-triazole-3-carboxamide], the Ki under setting [2] was found to be 516 nM.

`CN1C(=O)[C@@H](NC(=O)c2nnc(Cc3cccc(F)c3F)[nH]2)CCn2nc(C(F)(F)F)cc21` [Example 524]: under setting [4], the Ki was determined as 72 nM.

As to `CN1C(=O)[C@@H](NC(=O)c2cc3c(cn2)CO[C@]32CCOC2)COc2ccccc21` [Example 169, (R)-N-((S)-5-methyl-4-oxo-2,3,4,5-tetrahydrobenzo[b][1,4]oxazepin-3-yl)-4,5-dihydro-2H,3′H-spiro[furan-3,1′-furo[3,4-c]pyridine]-6′-carboxamide], under setting [3], the Ki is 19.3 nM.

In the case of `CN1C(=O)[C@@H](NC(=O)c2n[nH]c3c2CC(c2ccccc2)OC3)COc2ccccc21` (stereo partly drawn) [Example 9, N—((S)-5-methyl-4-oxo-2,3,4,5-tetrahydrobenzo[b][1,4]oxazepin-3-yl)-5-phenyl-1,4,5,7-tetrahydropyrano[3,4-c]pyrazole-3-carboxamide], under setting [1], the Ki turned out to be 282 nM.

For the compound `Cc1cc(F)c2c(c1)OC[C@H](NC(=O)c1nc3n(n1)[C@H](C(F)(F)F)CCC3)C(=O)N2` (single isomer, unassigned) [Example 428], under setting [4], the Ki is 8.14 nM.

For the compound `CC[C@@]1(C)OCc2cnc(C(=O)N[C@H]3CCn4nc(C)c(C)c4N(C)C3=O)cc21` [Example 276, (R)-1-ethyl-1-methyl-N—((S)-2,3,4-trimethyl-5-oxo-5,6,7,8-tetrahydro-4H-pyrazolo[1,5-a][1,3]diazepin-6-yl)-1,3-dihydrofuro[3,4-c]pyridine-6-carboxamide], the Ki under setting [2] is 93.6 nM.

Turning to `CC(C)[C@H]1CCCc2nc(C(=O)N[C@H]3COc4ccccc4N(C)C3=O)nn21` (single isomer, unassigned) [Example 413], the Ki under setting [4] stood at 227 nM.

Regarding `CN1C(=O)[C@@H](NC(=O)c2cc3n(n2)CCC[C@H]3c2ccccc2F)COc2ccccc21` [Example 710, (4S)-4-(2-fluorophenyl)-N-[(3S)-5-methyl-4-oxo-2,3-dihydro-1,5-benzoxazepin-3-yl]-4,5,6,7-tetrahydropyrazolo[1,5-a]pyridine-2-carboxamide], the Ki under setting [5] amounted to 9 nM.

For the compound `Cc1ncc2n1CC[C@@H](NC(=O)c1ncn(Cc3c(F)cccc3F)n1)C(=O)N2C` [Example 578, 1-[(2,6-difluorophenyl)methyl]-N-[(3R)-1,7-dimethyl-2-oxo-4,5-dihydro-3H-imidazo[1,5-a][1,3]diazepin-3-yl]-1,2,4-triazole-3-carboxamide], under setting [4], the Ki came to 40 nM.

With `CN1C(=O)[C@@H](NC(=O)c2n[nH]c3c2CCC2(CC2)C3)COc2ccccc21` [Example 2, (S)—N-(5-methyl-4-oxo-2,3,4,5-tetrahydrobenzo[b][1,4]oxazepin-3-yl)-1′,4′,5′,7′-tetrahydrospiro[cyclopropane-1,6′-indazole]-3′-carboxamide], under setting [1], the Ki was found to be 6500 nM.
